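96-well plates; 48 h exposure; 5 concentrations. Endpoints by linear interpolation between flanking doses. Not reached: highest tested concentration assigned. Here, GI50 denotes the concentration required for 50% inhibition of growth.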 Calls of active or inactive are those of the source. No stated cut-off is given here; in the data, active = GI50 up to about 1.1 µM and inactive = higher.
Assays:
Experiment in all cases: growth of human tumour cells (NCI), 48 h
786-0 = test system: 786-0
A498 = test system: A498
A549 = test system: A549
ACHN = test system: ACHN
CAKI-1 = test system: CAKI-1
CCRF-CEM = test system: CCRF-CEM
COLO 205 = test system: COLO 205
DLD-1 = test system: DLD-1
DMS-114 = test system: DMS-114
DMS-273 = test system: DMS-273
EKVX = test system: EKVX
HCC 2998 = test system: HCC 2998
HCT-15 = test system: HCT-15
HL-60 = test system: HL-60
HOP-18 = test system: HOP-18
HOP-62 = test system: HOP-62
HOP-92 = test system: HOP-92
HT-29 = test system: HT-29
IGROV-1 = test system: IGROV-1
K562 = test system: K562
KM-20L2 = test system: KM-20L2
KM12 = test system: KM12
LOX IMVI = test system: LOX IMVI
M19-MEL = test system: M19-MEL
MOLT-4 = test system: MOLT-4
Malme-3M = test system: Malme-3M
NCI-H226 = test system: NCI-H226
NCI-H23 = test system: NCI-H23
NCI-H460 = test system: NCI-H460
NCI-H522 = test system: NCI-H522
OVCAR-3 = test system: OVCAR-3
OVCAR-5 = test system: OVCAR-5
OVCAR-8 = test system: OVCAR-8
RPMI-8226 = test system: RPMI-8226
RXF 393 = test system: RXF 393
SF-268 = test system: SF-268
SF-295 = test system: SF-295
SF-539 = test system: SF-539
SK-MEL-28 = test system: SK-MEL-28
SK-MEL-2 = test system: SK-MEL-2
SK-MEL-5 = test system: SK-MEL-5
SK-OV-3 = test system: SK-OV-3
SN12C = test system: SN12C
SNB-75 = test system: SNB-75
SNB-78 = test system: SNB-78
SW-620 = test system: SW-620
TK-10 = test system: TK-10
U-251 = test system: U-251
UACC-257 = test system: UACC-257
UACC-62 = test system: UACC-62
UO-31 = test system: UO-31
HCT-116 = test system: HCT-116
LXFL 529 = test system: LXFL 529
M14 = test system: M14
OVCAR-4 = test system: OVCAR-4
SNB-19 = test system: SNB-19
XF498 = test system: XF498
BT-549 = test system: BT-549
DU-145 = test system: DU-145
MCF7 = test system: MCF7
MDA-MB-231 = test system: MDA-MB-231
MDA-N = test system: MDA-N
NCI/ADR-RES = test system: NCI/ADR-RES
PC-3 = test system: PC-3
SR = test system: SR
T47D = test system: T47D

In the case of `COc1ccccc1/C=C/C(=O)c1sc(-c2cccnc2)nc1C`, the GI50 (786-0) is reported as > 100 µM (inactive), the GI50 (A498) is reported as > 100 µM (inactive) and the GI50 (A549) is reported as > 100 µM (inactive). For the same compound, the GI50 (ACHN) was > 100 µM (inactive), the GI50 (CAKI-1) was > 100 µM (inactive) and the GI50 (CCRF-CEM) was 84.3 µM (inactive). The GI50 (COLO 205) was > 100 µM (inactive), the GI50 (DLD-1) was > 100 µM (inactive) and the GI50 (DMS-114) was > 100 µM (inactive). The GI50 (DMS-273) was > 100 µM (inactive), the GI50 (EKVX) was > 100 µM (inactive) and the GI50 (HCC 2998) was > 100 µM (inactive). The GI50 (HCT-15) was over 100 µM, the GI50 (HL-60) was > 100 µM (inactive) and the GI50 (HOP-18) was 76.6 µM (inactive). The GI50 (HOP-62) was > 100 µM (inactive), the GI50 (HOP-92) was > 100 µM (inactive) and the GI50 (HT-29) was > 100 µM (inactive). The GI50 (IGROV-1) was > 100 µM (inactive), the GI50 (K562) was > 100 µM (inactive) and the GI50 (KM-20L2) was > 100 µM (inactive). For the same compound, the GI50 (KM12) was 65.2 µM (inactive), the GI50 (LOX IMVI) was > 100 µM (inactive) and the GI50 (M19-MEL) was > 100 µM (inactive). The GI50 (MOLT-4) was 61.7 µM (inactive), the GI50 (Malme-3M) was > 100 µM (inactive) and the GI50 (NCI-H226) was > 100 µM (inactive). For the same compound, the GI50 (NCI-H23) was > 100 µM (inactive), the GI50 (NCI-H460) was > 100 µM (inactive) and the GI50 (NCI-H522) was > 100 µM (inactive). The GI50 (OVCAR-3) was > 100 µM (inactive), the GI50 (OVCAR-5) was > 100 µM (inactive) and the GI50 (OVCAR-8) was > 100 µM (inactive). The GI50 (RPMI-8226) was 26.3 µM (inactive), the GI50 (RXF 393) was 27.9 µM (inactive) and the GI50 (SF-268) was > 100 µM (inactive). For the same compound, the GI50 (SF-295) was 46.5 µM (inactive), the GI50 (SF-539) was > 100 µM (inactive) and the GI50 (SK-MEL-28) was > 100 µM (inactive). The GI50 (SK-MEL-2) was > 100 µM (inactive), the GI50 (SK-MEL-5) was 47.3 µM (inactive) and the GI50 (SK-OV-3) was > 100 µM (inactive). For the same compound, the GI50 (SN12C) was > 100 µM (inactive), the GI50 (SNB-75) was 22.8 µM (inactive) and the GI50 (SNB-78) was > 100 µM (inactive). For the same compound, the GI50 (SW-620) was > 100 µM (inactive), the GI50 (TK-10) was > 100 µM (inactive) and the GI50 (U-251) was > 100 µM (inactive). For the same compound, the GI50 (UACC-257) was > 100 µM (inactive), the GI50 (UACC-62) was > 100 µM (inactive) and the GI50 (UO-31) was > 100 µM (inactive).
With `O=c1/c(=C/c2cccc([N+](=O)[O-])c2)sc2nc3ccccc3n12` the GI50 (786-0) was > 100 µM (inactive), the GI50 (A498) was > 100 µM (inactive) and the GI50 (A549) was > 10 µM (inactive). For the same compound, the GI50 (ACHN) was 84.7 µM (inactive), the GI50 (CAKI-1) was > 10 µM (inactive) and the GI50 (CCRF-CEM) was > 100 µM (inactive). For the same compound, the GI50 (DLD-1) was > 100 µM (inactive), the GI50 (DMS-114) was > 100 µM (inactive) and the GI50 (DMS-273) was > 100 µM (inactive). For the same compound, the GI50 (EKVX) was 58.7 µM (inactive), the GI50 (HCC 2998) was 50.8 µM (inactive) and the GI50 (HCT-116) was 37.3 µM (inactive). The GI50 (HCT-15) was over 100 µM, the GI50 (HL-60) was > 100 µM (inactive) and the GI50 (HOP-62) was > 100 µM (inactive). The GI50 (HOP-92) was > 10 µM (inactive), the GI50 (HT-29) was > 100 µM (inactive) and the GI50 (IGROV-1) was > 10 µM (inactive). For the same compound, the GI50 (K562) was > 100 µM (inactive), the GI50 (KM-20L2) was > 10 µM (inactive) and the GI50 (KM12) was > 100 µM (inactive). The GI50 (LOX IMVI) was 6.73 µM (inactive), the GI50 (LXFL 529) was > 100 µM (inactive) and the GI50 (M14) was 55.1 µM (inactive). For the same compound, the GI50 (M19-MEL) was > 100 µM (inactive), the GI50 (Malme-3M) was > 100 µM (inactive) and the GI50 (NCI-H226) was > 100 µM (inactive). The GI50 (NCI-H23) was > 100 µM (inactive), the GI50 (NCI-H460) was > 100 µM (inactive) and the GI50 (OVCAR-3) was > 10 µM (inactive). For the same compound, the GI50 (OVCAR-4) was 52.4 µM (inactive), the GI50 (OVCAR-5) was > 100 µM (inactive) and the GI50 (OVCAR-8) was > 100 µM (inactive). For the same compound, the GI50 (RXF 393) was > 100 µM (inactive), the GI50 (SF-268) was 39.2 µM (inactive) and the GI50 (SF-295) was > 10 µM (inactive). For the same compound, the GI50 (SK-MEL-28) was 35.6 µM (inactive), the GI50 (SK-MEL-2) was > 100 µM (inactive) and the GI50 (SK-MEL-5) was > 10 µM (inactive). For the same compound, the GI50 (SK-OV-3) was 67.8 µM (inactive), the GI50 (SN12C) was > 100 µM (inactive) and the GI50 (SNB-19) was > 10 µM (inactive). For the same compound, the GI50 (SNB-75) was 32.8 µM (inactive), the GI50 (SNB-78) was > 100 µM (inactive) and the GI50 (SW-620) was > 100 µM (inactive). For the same compound, the GI50 (TK-10) was > 100 µM (inactive), the GI50 (U-251) was > 10 µM (inactive) and the GI50 (UACC-257) was 4.71 µM (inactive). The GI50 (UACC-62) was 0.446 µM (active), the GI50 (UO-31) was > 100 µM (inactive) and the GI50 (XF498) was > 100 µM (inactive).
In the case of `CCOC(=O)CSc1nnc(CSc2nc(-c3ccccc3)c(-c3ccccc3)[nH]2)n1-c1ccccc1`, the GI50 (786-0) is reported as 24.6 µM (inactive), the GI50 (A498) is reported as 17.9 µM (inactive) and the GI50 (A549) is reported as > 100 µM (inactive). The GI50 (ACHN) was 18.3 µM (inactive), the GI50 (BT-549) was > 100 µM (inactive) and the GI50 (CCRF-CEM) was > 54 µM (inactive). For the same compound, the GI50 (COLO 205) was > 58.2 µM (inactive), the GI50 (DLD-1) was > 100 µM (inactive) and the GI50 (DMS-114) was 15.3 µM (inactive). For the same compound, the GI50 (DMS-273) was > 100 µM (inactive), the GI50 (DU-145) was 15.4 µM (inactive) and the GI50 (EKVX) was > 100 µM (inactive). For the same compound, the GI50 (HCC 2998) was 19.5 µM (inactive), the GI50 (HCT-116) was > 56.5 µM (inactive) and the GI50 (HCT-15) was over 100 µM. The GI50 (HL-60) was 49.5 µM (inactive), the GI50 (HOP-62) was > 100 µM (inactive) and the GI50 (HOP-92) was 40.4 µM (inactive). The GI50 (HT-29) was 48.8 µM (inactive), the GI50 (IGROV-1) was > 83 µM (inactive) and the GI50 (K562) was > 100 µM (inactive). The GI50 (KM-20L2) was 27.7 µM (inactive), the GI50 (KM12) was > 75.9 µM (inactive) and the GI50 (LOX IMVI) was > 61.5 µM (inactive). The GI50 (LXFL 529) was 21.1 µM (inactive), the GI50 (M14) was > 45 µM (inactive) and the GI50 (M19-MEL) was 38.8 µM (inactive). The GI50 (MCF7) was 66.4 µM (inactive), the GI50 (MDA-MB-231) was 34.5 µM (inactive) and the GI50 (MDA-N) was 75.3 µM (inactive). The GI50 (MOLT-4) was > 49.8 µM (inactive), the GI50 (Malme-3M) was > 69.2 µM (inactive) and the GI50 (NCI-H226) was 42.3 µM (inactive). For the same compound, the GI50 (NCI-H23) was > 100 µM (inactive), the GI50 (NCI-H460) was > 100 µM (inactive) and the GI50 (NCI-H522) was > 87.7 µM (inactive). The GI50 (NCI/ADR-RES) was 61.9 µM (inactive), the GI50 (OVCAR-3) was > 100 µM (inactive) and the GI50 (OVCAR-4) was 22.1 µM (inactive). For the same compound, the GI50 (OVCAR-5) was > 59.2 µM (inactive), the GI50 (OVCAR-8) was 18.7 µM (inactive) and the GI50 (PC-3) was 20.7 µM (inactive). The GI50 (RPMI-8226) was > 80.4 µM (inactive), the GI50 (RXF 393) was 22.5 µM (inactive) and the GI50 (SF-268) was 26.1 µM (inactive). The GI50 (SF-295) was > 100 µM (inactive), the GI50 (SF-539) was 20.7 µM (inactive) and the GI50 (SK-MEL-28) was > 58.7 µM (inactive). For the same compound, the GI50 (SK-MEL-2) was > 31.6 µM (inactive), the GI50 (SK-MEL-5) was > 100 µM (inactive) and the GI50 (SK-OV-3) was 23.4 µM (inactive). For the same compound, the GI50 (SN12C) was 18.9 µM (inactive), the GI50 (SNB-19) was > 100 µM (inactive) and the GI50 (SNB-75) was > 100 µM (inactive). For the same compound, the GI50 (SNB-78) was 27.9 µM (inactive), the GI50 (SR) was 39.4 µM (inactive) and the GI50 (SW-620) was > 100 µM (inactive). The GI50 (T47D) was 26.7 µM (inactive), the GI50 (TK-10) was 17 µM (inactive) and the GI50 (U-251) was > 100 µM (inactive). The GI50 (UACC-257) was 29.3 µM (inactive), the GI50 (UACC-62) was 27.2 µM (inactive) and the GI50 (UO-31) was 18.2 µM (inactive). For the same compound, the GI50 (XF498) was 24.3 µM (inactive).

Reference: ChEMBL document CHEMBL1201862, “PubChem BioAssay data set” (2004)
